Test results reported in patent publication US20260365670A1, “EGFR INHIBITORS AND USES THEREOF” (DIZAL (JIANGSU) PHARMACEUTICAL CO., LTD., priority 2022, published 2026).
pIC50: −log10 of the molar value. Where two headings read alike, the source gives them in different places.

Assays:
[1] = target: T1, EGFR L858R (Homo sapiens, UniProt P00533, L858R); experiment: Inhibition of EGFR L858R biochemical enzymatic activity (HTRF); conditions: 1 mM ATP; for pIC50: 1 h at room temperature, read-out: IC50 @L858R
T1 construct: purchased Carna Bio
T1 sequence (P00533 25-1210 L858R): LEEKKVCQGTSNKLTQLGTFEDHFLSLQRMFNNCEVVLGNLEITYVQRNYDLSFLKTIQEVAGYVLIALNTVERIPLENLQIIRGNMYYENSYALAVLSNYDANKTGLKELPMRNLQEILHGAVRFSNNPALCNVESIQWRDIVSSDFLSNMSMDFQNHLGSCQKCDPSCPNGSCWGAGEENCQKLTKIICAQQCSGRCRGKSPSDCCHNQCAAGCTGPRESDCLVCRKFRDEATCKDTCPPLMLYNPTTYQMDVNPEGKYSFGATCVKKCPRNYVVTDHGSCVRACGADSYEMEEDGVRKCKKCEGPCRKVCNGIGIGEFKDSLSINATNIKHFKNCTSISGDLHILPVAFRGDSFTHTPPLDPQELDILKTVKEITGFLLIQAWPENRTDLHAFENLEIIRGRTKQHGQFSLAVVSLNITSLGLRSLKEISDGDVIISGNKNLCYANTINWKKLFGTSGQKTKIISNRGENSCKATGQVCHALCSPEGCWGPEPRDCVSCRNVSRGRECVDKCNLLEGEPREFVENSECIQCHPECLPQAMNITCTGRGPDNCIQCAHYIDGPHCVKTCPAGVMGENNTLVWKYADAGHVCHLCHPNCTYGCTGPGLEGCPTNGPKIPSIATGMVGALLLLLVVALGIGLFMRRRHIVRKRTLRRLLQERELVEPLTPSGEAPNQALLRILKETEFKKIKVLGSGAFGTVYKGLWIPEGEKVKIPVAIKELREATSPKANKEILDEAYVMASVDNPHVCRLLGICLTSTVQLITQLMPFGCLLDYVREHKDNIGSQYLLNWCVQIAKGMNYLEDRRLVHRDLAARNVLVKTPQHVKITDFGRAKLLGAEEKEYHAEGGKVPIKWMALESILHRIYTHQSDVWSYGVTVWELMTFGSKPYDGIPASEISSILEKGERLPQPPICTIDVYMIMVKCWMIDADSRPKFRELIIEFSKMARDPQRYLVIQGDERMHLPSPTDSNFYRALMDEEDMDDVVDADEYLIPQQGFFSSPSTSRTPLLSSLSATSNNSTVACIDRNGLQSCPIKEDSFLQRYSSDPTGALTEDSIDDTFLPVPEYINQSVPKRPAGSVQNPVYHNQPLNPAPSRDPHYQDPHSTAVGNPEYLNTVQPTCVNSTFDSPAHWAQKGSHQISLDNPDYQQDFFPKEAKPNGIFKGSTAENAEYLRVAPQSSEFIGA
How it was run: (§1)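 Compounds at varying concentrations were tested against each EGFR form using 1 mM ATP and 1 μM TK Substrate-biotin. Reactions ran 1 h at room temperature in Mg2+/Mn2+ buffer with CHAPS, DTT and 0.5% DMSO. Time-resolved fluorescence gave IC50 by four-parameter fit.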

[2] = target: T2, EGFR (d746-750 C797S) (Homo sapiens, UniProt P00533, C797S/DEL746-750); experiment: Inhibition of EGFR (d746-750 C797S) biochemical enzymatic activity (HTRF); conditions: 1 mM ATP; for pIC50: EGFR (d746-750 C797S), 1 h at room temperature, read-out: IC50 @Del19-C797S
T2 construct: purchased signalchem
T2 sequence (P00533 with tags, fused parts or gaps DEL746-750/C797S limits assumed): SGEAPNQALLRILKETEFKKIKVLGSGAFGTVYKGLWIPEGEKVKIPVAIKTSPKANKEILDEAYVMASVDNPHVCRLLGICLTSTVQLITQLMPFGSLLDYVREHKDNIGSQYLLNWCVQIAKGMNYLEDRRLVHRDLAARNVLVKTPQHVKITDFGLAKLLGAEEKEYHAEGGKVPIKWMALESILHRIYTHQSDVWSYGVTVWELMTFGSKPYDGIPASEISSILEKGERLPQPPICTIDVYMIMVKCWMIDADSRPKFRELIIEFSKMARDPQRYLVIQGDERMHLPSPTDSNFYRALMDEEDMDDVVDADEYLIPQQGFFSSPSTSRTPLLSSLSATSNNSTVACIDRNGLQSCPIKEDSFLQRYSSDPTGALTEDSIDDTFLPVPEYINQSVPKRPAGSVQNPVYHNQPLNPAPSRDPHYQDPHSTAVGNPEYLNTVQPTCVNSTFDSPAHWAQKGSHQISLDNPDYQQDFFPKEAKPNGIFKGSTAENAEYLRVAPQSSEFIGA
How it was run: as §1

[3] = target: T3, EGFR Exon19Del/T790M (Homo sapiens, UniProt P00533, DEL746-750/T790M); experiment: Inhibition of EGFR Exon19Del/T790M biochemical enzymatic activity (HTRF); conditions: 1 mM ATP; for pIC50: EGFR Exon19Del/T790M, 1 h at room temperature, read-out: IC50 @Del19-T790M
T3 construct: purchased Carna Bio
How it was run: as §1

[4] = target: T4, EGFR (C797S L858R) (Homo sapiens, UniProt P00533, C797S/L858R); experiment: Inhibition of EGFR (C797S L858R) biochemical enzymatic activity (HTRF); conditions: 1 mM ATP; for pIC50: EGFR (C797S L858R), 1 h at room temperature, read-out: IC50 @L858-C797S
T4 construct: purchased signalchem
How it was run: as §1

[5] = target: T5, EGFR wild type (Homo sapiens, UniProt P00533); experiment: Inhibition of EGFR wild type biochemical enzymatic activity (HTRF); conditions: 1 mM ATP; for pIC50: EGFR wild type, 1 h at room temperature, read-out: IC50 @WT
T5 construct: purchased Carna Bio
How it was run: as §1

[6] = target: T6, EGFR L858R/T790M (Homo sapiens, UniProt P00533, L858R/T790M); experiment: Inhibition of EGFR L858R/T790M biochemical enzymatic activity (HTRF); conditions: 1 mM ATP; for pIC50: EGFR L858R/T790M, 1 h at room temperature, read-out: IC50 @L858R-T790M
T6 construct: purchased Carna Bio
T6 sequence (P00533 25-1210 T790M/L858R): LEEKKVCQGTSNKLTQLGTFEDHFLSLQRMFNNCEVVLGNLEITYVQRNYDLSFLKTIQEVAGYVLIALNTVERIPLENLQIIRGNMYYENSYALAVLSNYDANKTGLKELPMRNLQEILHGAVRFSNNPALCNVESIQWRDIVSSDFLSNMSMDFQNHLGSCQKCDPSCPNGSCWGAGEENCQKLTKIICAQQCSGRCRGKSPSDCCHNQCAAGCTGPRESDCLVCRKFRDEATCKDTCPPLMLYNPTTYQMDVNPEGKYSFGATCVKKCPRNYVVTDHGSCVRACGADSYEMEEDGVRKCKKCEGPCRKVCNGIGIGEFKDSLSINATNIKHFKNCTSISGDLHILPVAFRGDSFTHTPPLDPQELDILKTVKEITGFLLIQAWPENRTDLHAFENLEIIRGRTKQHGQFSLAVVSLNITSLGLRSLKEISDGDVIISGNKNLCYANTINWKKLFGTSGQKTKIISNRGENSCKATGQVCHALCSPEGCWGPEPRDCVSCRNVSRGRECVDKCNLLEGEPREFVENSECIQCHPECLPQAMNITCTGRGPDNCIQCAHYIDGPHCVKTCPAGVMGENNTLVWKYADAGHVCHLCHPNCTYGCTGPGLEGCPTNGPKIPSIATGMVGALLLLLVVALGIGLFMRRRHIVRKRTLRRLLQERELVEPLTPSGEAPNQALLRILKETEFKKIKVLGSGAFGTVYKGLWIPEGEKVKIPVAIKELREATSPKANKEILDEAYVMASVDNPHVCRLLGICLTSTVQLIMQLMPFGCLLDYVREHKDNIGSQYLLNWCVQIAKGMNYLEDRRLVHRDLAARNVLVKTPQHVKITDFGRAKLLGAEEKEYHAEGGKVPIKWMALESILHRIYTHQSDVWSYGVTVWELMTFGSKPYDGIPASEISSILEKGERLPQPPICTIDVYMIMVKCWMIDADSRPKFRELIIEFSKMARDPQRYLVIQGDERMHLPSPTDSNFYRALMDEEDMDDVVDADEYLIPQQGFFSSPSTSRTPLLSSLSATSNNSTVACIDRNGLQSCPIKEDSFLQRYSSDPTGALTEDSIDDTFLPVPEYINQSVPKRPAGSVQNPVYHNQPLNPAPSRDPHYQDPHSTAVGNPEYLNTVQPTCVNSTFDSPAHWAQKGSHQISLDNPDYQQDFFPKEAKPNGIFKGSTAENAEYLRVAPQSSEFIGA
How it was run: as §1

[7] = target: T7, EGFR[T790M/C797S/d746-750] (Homo sapiens, UniProt P00533, C797S/DEL746-750/T790M); experiment: Inhibition of EGFR[T790M/C797S/d746-750] biochemical enzymatic activity (HTRF); conditions: for pIC50: EGFR[T790M/C797S/d746-750], 1 mM ATP, 1 h at room temperature, read-out: IC50 @T790M - C797S - Del19
T7 construct: purchased Carna Bio
T7 sequence (P00533 with tags, fused parts or gaps DEL746-750/T790M/C797S limits assumed): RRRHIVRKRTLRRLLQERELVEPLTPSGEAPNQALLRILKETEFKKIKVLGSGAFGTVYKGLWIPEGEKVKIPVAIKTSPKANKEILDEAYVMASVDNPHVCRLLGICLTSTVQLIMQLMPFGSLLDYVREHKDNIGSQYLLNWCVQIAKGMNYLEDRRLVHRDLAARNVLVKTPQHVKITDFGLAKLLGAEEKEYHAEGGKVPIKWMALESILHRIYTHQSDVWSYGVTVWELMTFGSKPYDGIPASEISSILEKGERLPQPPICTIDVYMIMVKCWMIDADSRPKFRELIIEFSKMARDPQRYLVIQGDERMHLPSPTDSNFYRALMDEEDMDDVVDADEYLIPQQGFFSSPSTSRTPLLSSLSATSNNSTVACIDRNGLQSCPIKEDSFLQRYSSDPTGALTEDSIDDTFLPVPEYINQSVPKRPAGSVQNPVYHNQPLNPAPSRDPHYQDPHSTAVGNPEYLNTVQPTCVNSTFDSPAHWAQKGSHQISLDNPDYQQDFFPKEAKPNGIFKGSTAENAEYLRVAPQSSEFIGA
How it was run: as §1

[8] = target: T8, EGFR Exon19Del (Homo sapiens, UniProt P00533, DEL746-750); experiment: Inhibition of EGFR Exon19Del biochemical enzymatic activity (HTRF); conditions: read-out: IC50 @Del19
T8 construct: purchased Carna Bio
How it was run: as §1

[9] = target: T9, EGFR[T790M/C797S/L858R] (Homo sapiens, UniProt P00533, C797S/L858R/T790M); experiment: Inhibition of EGFR[T790M/C797S/L858R] biochemical enzymatic activity (HTRF); conditions: 1 mM ATP; for pIC50: EGFR[T790M/C797S/L858R], 1 h at room temperature, read-out: IC50 @T790M- C797S - L858R
T9 construct: purchased Carna Bio
T9 sequence (P00533 25-1210 T790M/C797S/L858R): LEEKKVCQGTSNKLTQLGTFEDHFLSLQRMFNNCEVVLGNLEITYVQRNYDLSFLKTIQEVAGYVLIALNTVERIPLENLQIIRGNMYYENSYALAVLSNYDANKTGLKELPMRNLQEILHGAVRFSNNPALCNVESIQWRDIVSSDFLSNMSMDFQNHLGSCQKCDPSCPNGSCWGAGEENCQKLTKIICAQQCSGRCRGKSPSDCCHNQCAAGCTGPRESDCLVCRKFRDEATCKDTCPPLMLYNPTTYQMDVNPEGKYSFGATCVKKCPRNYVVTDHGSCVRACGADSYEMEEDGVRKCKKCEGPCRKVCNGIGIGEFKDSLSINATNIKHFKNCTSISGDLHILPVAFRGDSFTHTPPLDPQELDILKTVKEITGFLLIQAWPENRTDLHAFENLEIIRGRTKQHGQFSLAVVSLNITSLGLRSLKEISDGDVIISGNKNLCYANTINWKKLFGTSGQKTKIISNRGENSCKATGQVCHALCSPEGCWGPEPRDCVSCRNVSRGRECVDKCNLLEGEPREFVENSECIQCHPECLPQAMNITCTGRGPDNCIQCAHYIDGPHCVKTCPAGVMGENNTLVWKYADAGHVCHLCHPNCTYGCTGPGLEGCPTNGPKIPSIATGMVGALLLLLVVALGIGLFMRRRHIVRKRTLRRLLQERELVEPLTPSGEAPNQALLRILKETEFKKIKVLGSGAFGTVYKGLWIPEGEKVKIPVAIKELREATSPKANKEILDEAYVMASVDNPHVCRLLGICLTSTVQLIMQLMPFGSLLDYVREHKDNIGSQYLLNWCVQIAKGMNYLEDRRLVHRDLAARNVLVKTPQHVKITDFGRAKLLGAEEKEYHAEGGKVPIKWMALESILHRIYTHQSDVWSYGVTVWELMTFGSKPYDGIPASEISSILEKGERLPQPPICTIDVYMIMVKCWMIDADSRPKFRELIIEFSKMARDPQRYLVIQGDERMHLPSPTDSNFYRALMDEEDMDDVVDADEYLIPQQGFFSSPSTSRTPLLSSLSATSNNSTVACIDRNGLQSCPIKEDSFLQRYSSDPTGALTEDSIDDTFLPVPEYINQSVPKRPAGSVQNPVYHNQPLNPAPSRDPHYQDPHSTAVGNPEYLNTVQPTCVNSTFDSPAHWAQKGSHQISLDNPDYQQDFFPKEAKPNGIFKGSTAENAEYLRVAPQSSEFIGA
How it was run: as §1

[10] = test system: PC-9; experiment: Cell proliferation assay, PC-9 cells (CellTiter-Glo, 72 hours); assay type: cell-based; conditions: PC9 cells
How it was run: (§2)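 Growth over 72 h was quantified by CellTiter-Glo luminescence, normalised as (G3 − G0)/(DMSO G3 − G0), for PC-9 cells seeded at 500/well and EGFR-mutant Ba/F3 cells at 5000/well in RPMI1640. Compound concentration series added after overnight incubation; GI50 obtained from best-fit curves.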

[11] = test system: Ba/F3 cells expressing EGFR mutations; experiment: Cell proliferation assay, Ba/F3 cells expressing EGFR mutations (CellTiter-Glo, 72 hours); assay type: cell-based
How it was run: as §2

[12] = EGFR Exon19Del, 1 mM ATP, 1 h at room temperature
[13] = Homo sapiens, PC-9, 72 h, read-out: GI50 PC9
[14] = Mus musculus, BaF3, 72 h, BaF3 cells, EGFR DEL19 - C797S, read-out: GI50 DEL19 - C797S/BaF3
[15] = Mus musculus, BaF3, 72 h, BaF3 cells, EGFR DEL19 - T790-C797S, read-out: GI50 DEL19 - T790-C797S/BaF3
[16] = Mus musculus, BaF3, 72 h, BaF3 cells, EGFR L858R - C797S, read-out: GI50 L858R - C797S/BaF3
[17] = Mus musculus, BaF3, 72 h, BaF3 cells, EGFR L858R - T790-C797S, read-out: GI50 L858R - T790-C797S/BaF3
[18] = Mus musculus, BaF3, 72 h, BaF3 cells, EGFR L858R - T790M, read-out: GI50 L858R - T790M/BaF3
[19] = Mus musculus, BaF3, 72 h, BaF3 cells, EGFR L858R, read-out: GI50 L858R/BaF3
[20] = Mus musculus, BaF3, 72 h, EGFR DEL19 - T790M, read-out: GI50 DEL19 - T790M

pIC50 [1]	pIC50 [2]	pIC50 [3]	pIC50 [4]	pIC50 [5]	pIC50 [6]	pIC50 [7]	pIC50 [8, 12]	pIC50 [9]	GI50 [10, 13] [nM]	GI50 [11, 14] [nM]	GI50 [11, 15] [nM]	GI50 [11, 16] [nM]	GI50 [11, 17] [nM]	GI50 [11, 18] [nM]	GI50 [11, 19] [nM]	GI50 [11, 20] [nM]	other results	Structure (SMILES)
< 5.30	6.34	5.97	< 5.30	< 5.30	< 5.30	6.61	6.36	< 5.30	438	83	107	386	46	253	471	135		Cc1cc2cc(n1)-c1cnn(C)c1OCCN1CC3CCC(C3)(C1)n1c(nc3ccc(N4CCN(C)CC4)cc31)NC2=O (single isomer, unassigned) [Example B9A, 15,21-Dimethyl-5-(4-methylpiperazin-1-yl)-23-oxa-2,9,11,16,20,21,26-heptaazaheptacyclo[24.4.1.1^{1,28}.1^{13,17}.0^{2,10}.0^{3,8}.0^{18,22}]tritriaconta-3,5,7,9,13,15,17(33),18(22),19-nonaen-12-one]
6.45	7.55	7.77	6.69	< 5.30	7.55	8.07	7.35	7.89	155	26	9	171	19	37	149	11		Cc1cc2cc(n1)-c1cnn(C)c1OCCN1CC3CCC(CC3)(C1)n1c(nc3ccc(N4CC[C@@H](N(C)C)C4)cc31)NC2=O [Example B29]
																	IC50 ([1]; 1 h, room temperature, read-out: IC50 (nM) @L858R): 1310 nM; IC50 ([2]; EGFR Del19-C797S, 1 h, room temperature, read-out: IC50 (nM) @Del19-C797S): 400 nM; IC50 ([3]; EGFR Del19-T790M, 1 h, room temperature, read-out: IC50 (nM) @Del19-T790M): > 5000 nM; IC50 ([4]; EGFR L858-C797S, 1 h, room temperature, read-out: IC50 (nM) @L858-C797S): 1140 nM; IC50 ([5]; EGFR WT, 1 h, room temperature, read-out: IC50 (nM) @WT): > 5000 nM; IC50 ([6]; EGFR L858R-T790M, 1 h, room temperature, read-out: IC50 (nM) @L858R-T790M): > 5000 nM; IC50 ([7]; EGFR T790M-C797S-Del19, 1 mM ATP, 1 h, room temperature, read-out: IC50 (nM) @T790M - C797S - Del19): > 5000 nM; pIC50 ([8]; EGFR Del19, 1 mM ATP, 1 h, room temperature): 6.35; IC50 ([9]; EGFR T790M-C797S-L858R, 1 h, room temperature, read-out: IC50 (nM) @T790M- C797S - L858R): > 5000 nM; GI50 ([10]; CellTiter-Glo, read-out: PC9 GI50): 768 nM; GI50 ([11]; BaF3 cells, EGFR DEL19-C797S, CellTiter-Glo, read-out: DEL19-C797S/BaF3 GI50): 157 nM; GI50 ([11]; BaF3 cells, EGFR DEL19-T790-C797S, CellTiter-Glo, read-out: DEL19-T790-C797S/BaF3 GI50): 516 nM; GI50 ([11]; BaF3 cells, EGFR L858R, CellTiter-Glo, read-out: L858R/BaF3 GI50): 480 nM; GI50 ([11]; BaF3 cells, EGFR L858R-C797S, CellTiter-Glo, read-out: L858R-C797S/BaF3 GI50): 302 nM; GI50 ([11]; BaF3 cells, EGFR L858R-T790-C797S, CellTiter-Glo, read-out: L858R-T790-C797S/BaF3 GI50): 1040 nM; GI50 ([11]; BaF3 cells, EGFR L858R-T790M, CellTiter-Glo, read-out: L858R-T790M/BaF3 GI50): 997 nM; GI50 ([11]; EGFR DEL19-T790M, CellTiter-Glo, read-out: DEL19-T790M GI50): 545 nM	CN(C)C1CN(c2ccc3nc4n(c3c2)C23CCC(CN(CCOc5c(cnn5C)-c5cc(cn(C)c5=O)C(=O)N4)C2)C3)CC1F (single isomer, unassigned) [Example A84B, 15,21-Dimethyl-5-[4-fluoro-3-(N,N-dimethylamino)pyrrolidinyl]-23-oxa-2,9,11,15,20,21,26-heptaazaheptacyclo[24.4.1.1^{1,28}.1^{13,17}.0^{2,10}.0^{3,8}.0^{18,22}]tritriaconta-3,5,7,9,13,17(33),18(22),19-octaene-12,16-dione]
< 5.30	< 5.30	< 5.30	< 5.30	< 5.30	< 5.30	< 5.30	< 5.30	< 5.30									GI50 ([10]; read-out: GI50 PC9): 3560 nM; GI50 ([11]; BaF3 cells, EGFR DEL19 - C797S, read-out: GI50 DEL19 - C797S/BaF3): 873 nM; GI50 ([11]; BaF3 cells, EGFR DEL19 - T790-C797S, read-out: GI50 DEL19 - T790-C797S/BaF3): 1290 nM; GI50 ([11]; BaF3 cells, EGFR L858R - C797S, read-out: GI50 L858R - C797S/BaF3): 3820 nM; GI50 ([11]; BaF3 cells, EGFR L858R - T790-C797S, read-out: GI50 L858R - T790-C797S/BaF3): 343 nM; GI50 ([11]; BaF3 cells, EGFR L858R - T790M, read-out: GI50 L858R - T790M/BaF3): 1080 nM; GI50 ([11]; BaF3 cells, EGFR L858R, read-out: GI50 L858R/BaF3): 9400 nM; GI50 ([11]; EGFR DEL19 - T790M, read-out: GI50 DEL19 - T790M): 3760 nM	Cc1cc2cc(n1)-c1cnn(C)c1OCCN1CC3CCC(C3)(C1)n1c(nc3ccc(N4CCC(N5CCOCC5)C4)cc31)NC2=O (single isomer, unassigned) [Example B44A2]
< 5.30	6.21	6.98	< 5.30	< 5.30	5.58	7.21	5.92	5.78	427	228	186	189	295	383	934	265		Cc1cc2cc(n1)-c1cnn(C)c1OCCN1CCOCC(C1)n1c(nc3ccccc31)NC2=O (single isomer, unassigned) [Example B7A, 15,21-dimethyl-23,29-dioxa-2,9,11,16,20,21,26-heptaazahexacyclo[24.4.1.1^{13,17}.0^{2,10}.0^{3,8}.0^{18,22}]dotriaconta-3,5,7,9,13(32),14,16,18(22),19-nonaen-12-one]
